Source: paper PMC11314561, “Design and Synthesis of Novel Aminoindazole-pyrrolo[2,3-b]pyridine Inhibitors of IKKα That Selectively Perturb Cellular Non-Canonical NF-κB Signalling” (Molecules, 2024)
pIC50: −log10 of the molar value.

Experiments:
[1] = test system: IKKβ-mediated p65 phosphorylation (Ser536) in U2OS cells; assay: TNFα-stimulated p65 (Ser536) phosphorylation, Western blotting; type: cell-based; conditions: Homo sapiens, 1 h pre-treatment, TNFα 30 min
Procedure: To assess the translation of the biochemical potencies and selectivities described above to a cell-based setting, exemplars from the series were initially examined for inhibitory action against IKKs in the U2OS osteosarcoma cell line. This cell type was utilised to represent cells with a proliferative phenotype dependent on the constitutively activated IKKα-mediated non-canonical NF-κB pathway. Compounds 5r [SU1261]
(§1) U2OS cells were cultured in McCoy’s 5A Modified Medium, and PC-3M-Luc-C6 prostate cancer cells were cultured in Minimum Essential Medium (MEM), each containing 10% (v/v) Foetal Calf Serum (FCS), L-glutamine ([…]), and penicillin/streptomycin (250 units/mL; 100 μg/mL) and incubated in a humidified atmosphere at 37 °C with 5% (v/v) CO2. Cells were grown to near confluence and prior to experimentation rendered quiescent by serum deprivation for 24 h.
(§2) To examine the potential impact of compounds on canonical NF-κB signalling, cells were then exposed to vehicle (DMSO; 0.05% (v/v)) or increasing concentrations of compounds (0.01–30 µM) for 1 h prior to treatment with TNF⍺ (20 ng/mL) for 30 min. Whole-cell extracts were prepared, and the status of IκB⍺, phospho-p65 (Ser536), p65, and phospho-p105 ([…]) was also assessed by Western blotting.
(§3) Each figure/panel of Western blotting data represents one of at least three separate experiments. Western blots were scanned and imaged using Adobe Photoshop 5.0.2 software and polypeptide bands were semi-quantified by scanning densitometry using the Scion Image program. Data were normalised to fold expression/inhibition relative to ‘agonist plus vehicle’ treatment and expressed as mean ± s.e.m. IC50 values were established by curve fitting using the Hill equation.
Figure 11 Compound 5r [SU1261] inhibits FCS-stimulated p100 phosphorylation (Ser866/870) with no impact on TNFα-stimulated IkBα degradation and limited impact on phosphorylation of p65 (Ser536) in U2OS osteosarcoma cells. […] (0.3–30 µM) for 1 h prior to treatment with FCS (10% (v/v)) for 4 h, and phospho-p100 (Ser866/870) was assessed by Western blotting. […]

[2] = test system: p100 phosphorylation (Ser866/870) in PC-3M cells; assay: LTα1β2-stimulated p100 phosphorylation, Western blotting; type: cell-based; conditions: Homo sapiens, 1 h pre-treatment, LTα1β2 4 h
Procedure: as §1
For examination of potential effects of compound on non-canonical NF-κB signalling, cells were exposed to vehicle (DMSO; 0.03–0.05% (v/v)) or increasing concentrations of compounds (0.01–30 µM) for 1 h prior to treatment with FCS (10% (v/v); for U2OS cells) or LTα1β2 (20 ng/mL; for PC-3M cells) for 4 h. The status of p-p100 (Ser 866/870) in whole-cell extracts prepared from 12-well plates was assessed by Western blotting, as described in McKenzie et al.. […] Thereafter, p52 and RelB status in crude nuclear extracts normalised for protein amounts were assessed by Western blotting.
Each figure/panel of Western blotting data represents one of at least three separate experiments. Western blots were scanned and imaged using Adobe Photoshop 5.0.2 software and polypeptide bands were semi-quantified by scanning densitometry using the Scion Image program. […]

[3] = test system: IκBα degradation in PC-3M cells; assay: TNFα-stimulated IκBα degradation, Western blotting; type: cell-based; conditions: for effect on TNFα-stimulated IκBα degradation: PC-3M cells, 0.1–10 µM
Procedure: as §1, §2
as §3, with “IC50 values were established by curve fitting using the Hill equation.” left out
Figure 14 Compound 5r [SU1261] inhibits LTα1β2-stimulated p100 phosphorylation (Ser866/870) but not TNFα-stimulated IkBα degradation, phosphorylation of p65 (Ser536), nor phosphorylation of p105 (Ser932) in PC-3M prostate cancer cells. […] (0.1–10 µM) for 1 h prior to treatment with LTα1β2 (15 ng/mL) for 4 h, and phospho-p100 (Ser866/870) in whole-cell extracts was assessed by Western blotting. […] (0.1–10 µM) for 1 h prior to treatment with TNFα (10 ng/mL) for 30 min, and IkBα degradation, phospho-p65 (Ser536), phospho-p105 (Ser932), and p65 expression in whole-cell extracts were assessed by Western blotting. […] Normalised data (n = 3) from semi-quantitative scanning densitometry were plotted relative to ‘agonist plus vehicle’ (LTα1β2 plus DMSO), and IC50 values were established by curve fitting using the Hill equation (see Figure S1D).

[4] = test system: p65 (Ser536) phosphorylation in PC-3M cells; assay: TNFα-stimulated p65 (Ser536) phosphorylation, Western blotting; type: cell-based; conditions: 0.1–10 µM
Procedure: as §1, §2
as §3, with “equation. […]” for “equation.”

[5] = test system: p105 (Ser932) phosphorylation in PC-3M cells; assay: TNFα-stimulated p105 (Ser932) phosphorylation, Western blotting; type: cell-based; conditions: 0.1–10 µM
Procedure: as §1, §2
as §3, with “equation. […]” for “equation.”

[6] = Mouse hepatocyte intrinsic clearance and half-life; type: in vitro ADME; conditions: mouse CD1 hepatocytes; for half-life at 1 µM: cryopreserved pooled hepatocytes; for Mouse Hepatocyte Clearance: 1 µM
Procedure: Intrinsic clearance and half-life were determined using cryopreserved pooled mouse CD1 hepatocytes. Test compounds were analysed at 1 µM in Williams Media E buffer (0.01% DMSO) at a cell density of 0.5 × 10^6 cells mL^–1. Cells were incubated at 37 °C for one hour with shaking, and compound depletion was measured by LC-MS/MS at six time points (0.25, 5, 10, 20, 40, and 60 min).

panel of 231 kinases = assay: Kinome profiling, summary; type: biochemical, human; conditions: 1 μM
Description: We profiled three compounds from the series across the kinome (Table S1).
Ta b l e S1. The % inhibition of compounds 4, 5r [SU1261], and 6g [SU1349] against a
panel of kinase enzymes. We proϐiled three compounds from the series across 231
kinases. For SU1349, given its structural similarity with SU1261, we selected 98 from the
Tested kinase % inhibiƟon

Nc1n[nH]c2ccc(-c3ccnc4[nH]c(-c5cccc(OCc6ccccc6)c5)cc34)cc12 [Compound 5r [SU1261]]
pIC50 [1]: 5.25
pIC50 [2]: 6.24
effect on TNFα-stimulated IκBα degradation [3]: did not impact
effect on TNFα-stimulated p65 (Ser536) phosphorylation [4]: did not impact
effect on TNFα-stimulated p105 (Ser932) phosphorylation [5]: no significant concentration-dependent inhibition
half-life at 1 µM [6]: 36 min
Mouse Hepatocyte Clearance [6]: 38 μL/min/10^6 Cells
number of kinases inhibited by >80% (panel of 231 kinases): 10 kinases

Nc1n[nH]c2ccc(-c3ccnc4[nH]c(-c5ccnc(OCc6ccccc6)c5)cc34)cc12 [Compound 6g [SU1349]]
pIC50 [1]: < 4.52
pIC50 [2]: 6.70
effect on TNFα-stimulated IκBα degradation [3]: no impact
impact on IKKβ-mediated canonical NF-κB signalling ([3]; prostate cancer cell line (PC-3M), at 10 μM): no detectable impact
effect on TNFα-stimulated p65 (Ser536) phosphorylation [4]: no impact
effect on TNFα-stimulated p105 (Ser932) phosphorylation [5]: no impact
half-life at 1 µM [6]: 51 min
Mouse Hepatocyte Clearance [6]: 27 μL/min/10^6 Cells

Nc1n[nH]c2ccc(-c3ccnc4[nH]c(-c5ccccc5)cc34)cc12 [Compound 4]
pIC50 [1]: 6.52
number of kinases inhibited by >80% (panel of 231 kinases): 44 kinases
